Experimental data from patent US12428408B2, “Fused heterocyclic mescaline derivatives” (Enveric Biosciences Canada Inc., priority 2022, dated 2025).
Like-named read-outs stand apart in the source and are kept apart here.

Experiments:
[1] = molecular target: T1, NET (h) (Homo sapiens, UniProt P23975); test: Competition assay to measure binding affinity at norepinephrine transporter (NET); conditions: test ligand 10 μM; [3H]nisoxetine 1 nM
T1 construct: host or cells: CHO cells

[2] = molecular target: 5-HT2A receptor (Homo sapiens, UniProt P28223); test: 5-HT2A receptor radioligand competition assay (SPA)
Chain of 5-HT2A receptor (P28223 whole entry): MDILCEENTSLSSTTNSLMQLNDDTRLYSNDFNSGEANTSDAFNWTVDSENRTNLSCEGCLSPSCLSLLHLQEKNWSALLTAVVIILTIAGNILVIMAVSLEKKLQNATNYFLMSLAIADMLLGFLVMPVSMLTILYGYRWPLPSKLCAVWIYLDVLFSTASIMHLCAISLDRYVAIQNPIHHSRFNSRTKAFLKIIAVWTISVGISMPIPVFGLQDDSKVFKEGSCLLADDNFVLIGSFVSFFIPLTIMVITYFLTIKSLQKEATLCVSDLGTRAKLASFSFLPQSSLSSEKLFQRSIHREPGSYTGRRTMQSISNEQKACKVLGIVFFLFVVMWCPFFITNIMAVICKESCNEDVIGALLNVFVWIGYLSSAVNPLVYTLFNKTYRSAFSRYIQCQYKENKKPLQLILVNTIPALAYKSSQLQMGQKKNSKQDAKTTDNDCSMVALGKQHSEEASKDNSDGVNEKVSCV

[3] = molecular target: T2, DAT (h) (Homo sapiens, UniProt Q01959); test: Competition assay to measure binding affinity at dopamine transporter (DAT); conditions: test ligand 10 μM; [3H]BTCP 4 nM
T2 construct: host or cells: CHO cells
T2 sequence (Q01959 whole entry): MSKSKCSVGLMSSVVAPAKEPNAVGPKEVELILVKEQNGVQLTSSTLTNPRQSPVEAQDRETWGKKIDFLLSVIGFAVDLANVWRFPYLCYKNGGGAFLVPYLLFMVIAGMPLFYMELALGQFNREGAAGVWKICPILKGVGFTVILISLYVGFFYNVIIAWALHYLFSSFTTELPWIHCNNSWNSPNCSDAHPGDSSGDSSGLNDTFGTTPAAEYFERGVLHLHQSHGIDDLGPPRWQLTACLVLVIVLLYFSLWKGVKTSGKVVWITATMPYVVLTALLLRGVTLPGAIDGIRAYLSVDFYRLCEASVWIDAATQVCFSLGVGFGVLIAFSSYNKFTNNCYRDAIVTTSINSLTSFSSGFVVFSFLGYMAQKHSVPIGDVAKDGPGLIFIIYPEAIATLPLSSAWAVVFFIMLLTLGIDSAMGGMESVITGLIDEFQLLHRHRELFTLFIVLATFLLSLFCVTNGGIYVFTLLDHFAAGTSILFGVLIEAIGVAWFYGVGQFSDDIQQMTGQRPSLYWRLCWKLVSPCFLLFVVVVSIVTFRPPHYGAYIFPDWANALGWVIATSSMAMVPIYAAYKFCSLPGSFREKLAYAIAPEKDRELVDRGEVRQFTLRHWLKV

[4] = molecular target: T3, 5-HT2C (h) (Homo sapiens, UniProt P28335); test: Competition assay to measure binding affinity at 5-HT2C receptor; conditions: test ligand 10 μM; [125I](±)DOI 0.1 nM
T3 construct: host or cells: HEK-293 cells
T3 sequence (P28335 33-458): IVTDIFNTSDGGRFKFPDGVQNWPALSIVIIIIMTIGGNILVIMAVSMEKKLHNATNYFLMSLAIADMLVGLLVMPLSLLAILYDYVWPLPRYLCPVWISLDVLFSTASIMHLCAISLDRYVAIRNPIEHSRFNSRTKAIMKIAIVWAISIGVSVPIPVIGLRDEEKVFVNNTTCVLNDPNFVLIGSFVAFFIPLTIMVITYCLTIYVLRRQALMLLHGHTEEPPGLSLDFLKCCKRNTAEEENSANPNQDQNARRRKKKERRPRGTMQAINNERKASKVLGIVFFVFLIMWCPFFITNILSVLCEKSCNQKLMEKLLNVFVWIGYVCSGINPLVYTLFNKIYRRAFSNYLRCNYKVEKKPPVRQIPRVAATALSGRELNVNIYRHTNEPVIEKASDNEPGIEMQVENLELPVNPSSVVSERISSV

[5] = molecular target: T4, D2 (h) (Homo sapiens, UniProt P14416); test: Competition assay to measure binding affinity at D2L receptor; conditions: test ligand 10 μM; [3H]methylspiperone 0.3 nM
T4 construct: host or cells: HEK-293 cells
T4 sequence (P14416 whole entry): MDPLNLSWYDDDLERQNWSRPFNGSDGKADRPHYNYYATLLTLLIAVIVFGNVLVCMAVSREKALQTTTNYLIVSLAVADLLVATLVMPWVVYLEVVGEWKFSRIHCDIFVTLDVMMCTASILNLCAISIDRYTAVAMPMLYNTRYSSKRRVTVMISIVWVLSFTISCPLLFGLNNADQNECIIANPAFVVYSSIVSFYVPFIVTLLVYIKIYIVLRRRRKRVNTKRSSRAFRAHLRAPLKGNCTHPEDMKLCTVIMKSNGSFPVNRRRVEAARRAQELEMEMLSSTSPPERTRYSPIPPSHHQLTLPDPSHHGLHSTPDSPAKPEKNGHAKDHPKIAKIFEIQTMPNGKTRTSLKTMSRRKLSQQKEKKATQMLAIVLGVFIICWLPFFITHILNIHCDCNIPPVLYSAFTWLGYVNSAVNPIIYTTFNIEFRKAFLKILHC

[6] = molecular target: T5, 5-HT1B (h) (Homo sapiens, UniProt P28222); test: Competition assay to measure binding affinity at 5-HT1B receptor; conditions: test ligand 10 μM; [3H]GR125743 1 nM
T5 construct: host or cells: Chem-1 (RBL) cells
T5 sequence (P28222 whole entry): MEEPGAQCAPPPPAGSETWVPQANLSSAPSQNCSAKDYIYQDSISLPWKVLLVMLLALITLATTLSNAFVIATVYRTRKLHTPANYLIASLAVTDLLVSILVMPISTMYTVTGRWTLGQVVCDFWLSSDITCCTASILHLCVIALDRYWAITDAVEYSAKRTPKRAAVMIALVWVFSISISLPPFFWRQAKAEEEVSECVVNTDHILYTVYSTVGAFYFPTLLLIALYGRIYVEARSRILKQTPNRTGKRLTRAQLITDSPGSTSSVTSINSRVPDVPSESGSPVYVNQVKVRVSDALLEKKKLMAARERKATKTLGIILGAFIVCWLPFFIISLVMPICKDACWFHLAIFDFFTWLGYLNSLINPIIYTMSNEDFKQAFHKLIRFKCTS

[7] = molecular target: T6, human serotonin transporter (SERT) (Homo sapiens, UniProt P31645); test: biochemical; assay type: binding
T6 construct: purchased PerkinElmer RBHSTM400UA
T6 sequence (P31645 whole entry): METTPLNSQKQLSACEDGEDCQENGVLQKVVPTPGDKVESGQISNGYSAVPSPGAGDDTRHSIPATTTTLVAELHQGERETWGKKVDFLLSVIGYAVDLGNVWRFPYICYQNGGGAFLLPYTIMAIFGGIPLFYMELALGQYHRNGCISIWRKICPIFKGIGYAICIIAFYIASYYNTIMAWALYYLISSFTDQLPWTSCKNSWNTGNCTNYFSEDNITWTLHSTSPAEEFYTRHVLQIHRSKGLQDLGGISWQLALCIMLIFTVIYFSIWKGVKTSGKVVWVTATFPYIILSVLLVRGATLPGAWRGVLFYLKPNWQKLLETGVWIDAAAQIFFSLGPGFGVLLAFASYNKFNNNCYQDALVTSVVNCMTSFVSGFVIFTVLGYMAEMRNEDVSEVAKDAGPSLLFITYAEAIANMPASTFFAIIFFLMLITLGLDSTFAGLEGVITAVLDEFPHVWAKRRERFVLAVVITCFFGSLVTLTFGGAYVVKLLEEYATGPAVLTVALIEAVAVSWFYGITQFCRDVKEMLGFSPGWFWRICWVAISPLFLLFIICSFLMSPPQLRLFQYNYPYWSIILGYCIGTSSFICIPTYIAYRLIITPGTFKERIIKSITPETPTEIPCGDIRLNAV

[8] = molecular target: T7, 5-HT2B (h) (Homo sapiens, UniProt P41595); test: Competition assay to measure binding affinity at 5-HT2B receptor; conditions: test ligand 10 μM; [3H]mesulergine 2 nM
T7 construct: host or cells: CHO cells
T7 sequence (P41595 whole entry): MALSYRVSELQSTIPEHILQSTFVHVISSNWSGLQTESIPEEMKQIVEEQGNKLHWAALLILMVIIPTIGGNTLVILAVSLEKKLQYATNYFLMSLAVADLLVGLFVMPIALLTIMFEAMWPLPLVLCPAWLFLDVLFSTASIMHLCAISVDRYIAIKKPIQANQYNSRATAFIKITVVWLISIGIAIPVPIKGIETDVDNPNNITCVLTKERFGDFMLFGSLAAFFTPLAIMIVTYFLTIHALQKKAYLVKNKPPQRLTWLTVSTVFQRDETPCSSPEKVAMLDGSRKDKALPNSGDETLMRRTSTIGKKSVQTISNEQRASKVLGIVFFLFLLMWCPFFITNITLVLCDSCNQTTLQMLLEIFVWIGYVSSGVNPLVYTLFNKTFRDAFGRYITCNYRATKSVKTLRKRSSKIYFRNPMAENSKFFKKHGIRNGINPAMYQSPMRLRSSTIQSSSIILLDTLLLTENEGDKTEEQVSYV

[9] = molecular target: T8, D3 (h) (Homo sapiens, UniProt P35462); test: Competition assay to measure binding affinity at D3 receptor; conditions: test ligand 10 μM; [3H]methylspiperone […]
T8 construct: host or cells: CHO cells

[10] = molecular target: T9, MT1 (ML1A) (h) (Homo sapiens, UniProt P48039); test: Competition assay to measure binding affinity at MT1 receptor; conditions: test ligand 10 μM; [125I]2-iodomelatonin 0.01 nM
T9 construct: host or cells: CHO cells
T9 sequence (P48039 whole entry): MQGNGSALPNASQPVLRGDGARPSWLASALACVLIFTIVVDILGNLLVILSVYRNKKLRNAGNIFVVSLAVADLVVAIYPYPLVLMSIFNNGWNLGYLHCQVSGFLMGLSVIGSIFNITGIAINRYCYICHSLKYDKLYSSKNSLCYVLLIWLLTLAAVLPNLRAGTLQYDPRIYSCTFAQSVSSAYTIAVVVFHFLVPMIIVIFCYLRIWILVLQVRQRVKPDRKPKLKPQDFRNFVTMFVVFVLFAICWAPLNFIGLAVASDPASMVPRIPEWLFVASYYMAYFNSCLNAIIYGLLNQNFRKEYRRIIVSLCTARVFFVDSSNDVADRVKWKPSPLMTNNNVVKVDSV

[11] = molecular target: T10, 5-HT7 (h) (Homo sapiens, UniProt P34969); test: Competition assay to measure binding affinity at 5-HT7 receptor; conditions: test ligand 10 μM; [3H]LSD 4 nM
T10 construct: host or cells: HEK-293 cells
T10 sequence (P34969 whole entry): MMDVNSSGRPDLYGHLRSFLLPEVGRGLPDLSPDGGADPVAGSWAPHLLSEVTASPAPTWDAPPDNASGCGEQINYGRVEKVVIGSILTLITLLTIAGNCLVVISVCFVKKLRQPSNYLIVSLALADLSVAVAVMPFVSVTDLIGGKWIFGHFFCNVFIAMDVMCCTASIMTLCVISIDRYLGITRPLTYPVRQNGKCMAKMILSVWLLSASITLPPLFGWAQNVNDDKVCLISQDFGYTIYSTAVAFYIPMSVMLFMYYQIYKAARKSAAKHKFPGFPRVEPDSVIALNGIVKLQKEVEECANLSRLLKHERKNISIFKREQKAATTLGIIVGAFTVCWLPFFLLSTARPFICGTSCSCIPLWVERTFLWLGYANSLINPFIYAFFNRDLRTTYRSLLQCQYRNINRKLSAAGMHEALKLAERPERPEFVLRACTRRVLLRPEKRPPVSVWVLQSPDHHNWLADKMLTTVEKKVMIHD

[12] = molecular target: T11, 5-HT1A receptor (Homo sapiens, UniProt P08908); test: 5-HT1A receptor radioligand competition assay (SPA); assay type: binding
T11 construct: purchased Perkin Elmer 6110501400UA
T11 sequence (P08908 1-422): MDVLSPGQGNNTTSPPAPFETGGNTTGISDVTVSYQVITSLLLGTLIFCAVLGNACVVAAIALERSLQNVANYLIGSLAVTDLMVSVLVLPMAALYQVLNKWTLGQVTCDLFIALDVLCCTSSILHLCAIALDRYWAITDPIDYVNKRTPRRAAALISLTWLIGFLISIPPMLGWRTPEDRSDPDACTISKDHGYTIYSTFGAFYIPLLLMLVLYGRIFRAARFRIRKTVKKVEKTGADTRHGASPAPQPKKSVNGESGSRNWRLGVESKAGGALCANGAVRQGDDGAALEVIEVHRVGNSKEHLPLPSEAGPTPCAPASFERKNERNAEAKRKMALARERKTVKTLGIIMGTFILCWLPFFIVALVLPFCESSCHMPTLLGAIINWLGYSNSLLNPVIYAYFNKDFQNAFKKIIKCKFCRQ

[13] = molecular target: T12, alpha2A (h) (Homo sapiens, UniProt P08913); test: Competition assay to measure binding affinity at alpha2A receptor; conditions: test ligand 10 μM; [3H]RX 821002 1 nM; read-out: α-2A, percent of control-specific binding
T12 construct: host or cells: CHO cells
T12 sequence (P08913 1-465): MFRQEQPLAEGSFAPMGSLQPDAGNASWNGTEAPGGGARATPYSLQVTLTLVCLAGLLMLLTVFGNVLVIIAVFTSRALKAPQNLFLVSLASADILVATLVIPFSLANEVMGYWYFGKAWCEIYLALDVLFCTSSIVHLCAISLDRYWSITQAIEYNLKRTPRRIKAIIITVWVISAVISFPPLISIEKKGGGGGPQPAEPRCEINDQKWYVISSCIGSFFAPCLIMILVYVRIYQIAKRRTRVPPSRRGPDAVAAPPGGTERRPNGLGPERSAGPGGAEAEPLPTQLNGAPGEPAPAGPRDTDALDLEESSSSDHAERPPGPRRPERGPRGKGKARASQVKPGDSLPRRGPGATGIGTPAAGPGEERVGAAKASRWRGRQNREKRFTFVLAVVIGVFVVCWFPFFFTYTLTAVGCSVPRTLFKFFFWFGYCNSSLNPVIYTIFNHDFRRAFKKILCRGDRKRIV

[14] = molecular target: T13, 5-HT1D (r) (Rattus norvegicus, UniProt P28565); test: Competition assay to measure binding affinity at 5-HT1D receptor; conditions: test ligand 10 μM; [3H]serotonin 1 nM
T13 construct: host or cells: CHO cells
T13 sequence (P28565 whole entry): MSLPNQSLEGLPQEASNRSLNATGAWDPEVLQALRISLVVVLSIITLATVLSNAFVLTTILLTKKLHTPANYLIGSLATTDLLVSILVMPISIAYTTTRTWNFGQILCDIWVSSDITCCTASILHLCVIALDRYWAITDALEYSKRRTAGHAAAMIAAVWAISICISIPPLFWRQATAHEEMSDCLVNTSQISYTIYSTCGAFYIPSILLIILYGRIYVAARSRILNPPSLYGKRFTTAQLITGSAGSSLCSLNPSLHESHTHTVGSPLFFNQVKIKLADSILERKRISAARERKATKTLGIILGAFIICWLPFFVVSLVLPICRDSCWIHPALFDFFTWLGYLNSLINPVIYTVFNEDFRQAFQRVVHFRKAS

[15] = competition with 0.5 nM 8-hydroxy-DPAT [3H], test compound 3 nM to 1 mM, read-out: 5-HT1A, Ki

T1 sequence (P23975 whole entry): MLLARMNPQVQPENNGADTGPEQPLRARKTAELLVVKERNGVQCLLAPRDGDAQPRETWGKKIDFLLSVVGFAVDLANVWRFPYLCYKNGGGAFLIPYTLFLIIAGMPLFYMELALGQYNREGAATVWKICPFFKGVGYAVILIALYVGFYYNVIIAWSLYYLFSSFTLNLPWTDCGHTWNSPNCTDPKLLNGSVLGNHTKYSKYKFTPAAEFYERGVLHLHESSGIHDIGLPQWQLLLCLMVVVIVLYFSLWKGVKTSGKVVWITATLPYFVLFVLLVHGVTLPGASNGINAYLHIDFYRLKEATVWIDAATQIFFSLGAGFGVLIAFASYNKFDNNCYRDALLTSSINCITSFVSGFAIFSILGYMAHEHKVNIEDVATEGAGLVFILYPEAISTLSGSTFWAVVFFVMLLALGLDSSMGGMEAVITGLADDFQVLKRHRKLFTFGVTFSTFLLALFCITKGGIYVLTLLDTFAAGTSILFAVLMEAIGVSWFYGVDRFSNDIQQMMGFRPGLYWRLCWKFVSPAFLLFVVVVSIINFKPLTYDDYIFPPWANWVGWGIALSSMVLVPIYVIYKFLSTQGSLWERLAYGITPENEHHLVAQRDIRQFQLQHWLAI

Compound | NET, percent of control-specific binding [1] [%] | Ki [2] [µM] | DAT, percent of control-specific binding [3] [%] | HT2C, percent of control-specific binding [4] [%] | D2, percent of control-specific binding [5] [%] | HT1B, percent of control-specific binding [6] [%] | Ki [7] [µM] | HT2B, percent of control-specific binding [8] [%] | D3, percent of control-specific binding [9] [%] | MT1, percent of control-specific binding [10] [%] | HT7, percent of control-specific binding [11] [%] | Ki [12] [µM] | inhibition at 10 µM [13] [%] | HT1D, percent of control-specific binding [14] [%] | Ki [12, 15] [µM] | SERT binding, binding curve in words [7]
CC(Cc1ccc2c(c1)OCO2)N1CCC1 (stereo not drawn) [A(II)] | 77 | 13 | 86 | 94 | 13 | 17 | 1.87 | 84 | 56 | 3 | 59 | 0.926 | 60 | 43 |  | 
CC(Cc1ccc2c(c1)OCO2)N1CCOCC1 (stereo not drawn) [A(III)] | 0 | 42 | 9 | 3 | 12 | 0 | 26.3 | 13 | 9 | 0 | 3 | 38.6 | 32 | 0 |  | 
CC(Cc1ccc2c(c1)OCO2)N1CC(NC(=O)OC(C)(C)C)C1 (stereo not drawn) [A(IV)] | 15 | 15 | 20 | 69 | 37 | 15 | 49.8 | 94 | 84 | 3 | 79 |  | 75 | 13 | 1.6 | 
CC(Cc1ccc2c(c1)OCCO2)NCc1cc2c(cc1Br)OCO2 (stereo not drawn) [A(IX)] | 47 | 19 | 75 | 88 | 35 | 1 | 0.223 | 97 | 45 | 24 | 72 | 0.986 | 82 | 83 |  | 
COc1cc2c(cc1CNC(C)Cc1ccc3c(c1)OCO3)OCO2 (stereo not drawn) [A(V)] | 83 | 19 | 84 | 90 | 19 | 0 | 1.28 | 92 | 23 | 23 | 68 | 1.88 | 74 | 0 |  | 
CC(Cc1ccc2c(c1)OCO2)NCc1cc2c(cc1Br)OCO2 (stereo not drawn) [A(VI)] | 55 | 5.3 | 79 | 97 | 39 | 0 | 0.475 | 99 | 42 | 20 | 67 | 1.52 | 74 | 47 |  | binds SERT
CC(Cc1ccc2c(c1)OCO2)NN(C)C (stereo not drawn) [A(VIII)] | 2 | 3.38 | 38 | 79 | 12 | 0 | 22.6 | 67 | 18 | 33 | 17 |  | 8 | 0 | 19.6 | 
COc1cc2c(cc1CNC(C)Cc1ccc3c(c1)OCCO3)OCO2 (stereo not drawn) [A(X)] | 49 | 12 | 84 | 63 | 13 | 0 | 2.36 | 89 | 25 | 15 | 59 | 1.1 | 81 | 10 |  | 
CC(Cc1ccc2c(c1)OCCO2)NCc1cc2c(cc1Br)OCCO2 (stereo not drawn) [A(XI)] | 64 | 7 | 47 | 63 | 40 | 7 | 0.191 | 94 | 36 | 15 | 62 | 0.507 | 92 | 31 |  | 
O=C(Cc1c(Br)ccc2c1OCO2)N1CCCC1 [A(XXVI)] | 0 | 31 | 0 | 1 | 0 | 0 |  | 1 | 0 | 30 | 0 |  | 0 | 0 | 44.4 | 
O=C(Cc1ccc2c(c1)OC(F)(F)O2)N1CCCC1 [A(XXVII)] | 15 |  | 5 | 9 | 0 | 0 | 634 | 5 | 0 | 2 | 0 |  | 0 | 2 | > 1000 | 
